Values quoted from earlier work as cited in US20240390265A1, “FORMULATIONS FOR TRANSDERMAL ADMINISTRATION OF ACTIVE AGENTS” (DYVE BIOSCIENCES, INC., priority 2022, published 2024).

What was measured:
[1] = target: T1, BRAF (Homo sapiens, UniProt P15056); settings: read-out: IC50 (B-Raf inhibitor)
Target sequence in this assay (P15056 2-766 limits assumed): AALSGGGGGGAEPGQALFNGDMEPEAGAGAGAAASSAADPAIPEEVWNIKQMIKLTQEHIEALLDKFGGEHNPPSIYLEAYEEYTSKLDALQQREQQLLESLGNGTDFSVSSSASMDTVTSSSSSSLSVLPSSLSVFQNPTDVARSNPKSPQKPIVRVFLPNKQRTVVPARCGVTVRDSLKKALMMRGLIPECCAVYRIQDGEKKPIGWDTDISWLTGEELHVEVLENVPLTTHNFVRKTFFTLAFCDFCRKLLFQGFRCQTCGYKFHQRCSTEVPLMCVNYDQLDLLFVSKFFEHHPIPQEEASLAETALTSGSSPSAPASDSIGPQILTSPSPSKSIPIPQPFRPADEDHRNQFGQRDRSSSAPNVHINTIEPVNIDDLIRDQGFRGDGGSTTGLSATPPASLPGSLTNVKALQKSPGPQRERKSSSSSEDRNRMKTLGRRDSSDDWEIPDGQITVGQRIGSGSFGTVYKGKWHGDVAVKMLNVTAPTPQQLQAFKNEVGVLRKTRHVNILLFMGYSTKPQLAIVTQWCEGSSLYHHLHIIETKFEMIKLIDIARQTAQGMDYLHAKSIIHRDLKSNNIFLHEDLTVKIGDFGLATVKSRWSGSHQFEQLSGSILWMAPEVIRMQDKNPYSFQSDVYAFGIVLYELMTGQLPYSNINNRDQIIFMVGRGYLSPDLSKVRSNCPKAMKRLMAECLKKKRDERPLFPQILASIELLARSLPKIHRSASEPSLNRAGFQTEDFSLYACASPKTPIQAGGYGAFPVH

[2] = tested on: KRAS G12D mutant tumor cells
[3] = tested on: tumor models harboring KRAS G12D mutations
[4] = tested on: cell line and primary human tumor derived xenograft models; settings: at well-tolerated doses
[5] = target: T1, BRAF
Target sequence in this assay (P15056 whole entry): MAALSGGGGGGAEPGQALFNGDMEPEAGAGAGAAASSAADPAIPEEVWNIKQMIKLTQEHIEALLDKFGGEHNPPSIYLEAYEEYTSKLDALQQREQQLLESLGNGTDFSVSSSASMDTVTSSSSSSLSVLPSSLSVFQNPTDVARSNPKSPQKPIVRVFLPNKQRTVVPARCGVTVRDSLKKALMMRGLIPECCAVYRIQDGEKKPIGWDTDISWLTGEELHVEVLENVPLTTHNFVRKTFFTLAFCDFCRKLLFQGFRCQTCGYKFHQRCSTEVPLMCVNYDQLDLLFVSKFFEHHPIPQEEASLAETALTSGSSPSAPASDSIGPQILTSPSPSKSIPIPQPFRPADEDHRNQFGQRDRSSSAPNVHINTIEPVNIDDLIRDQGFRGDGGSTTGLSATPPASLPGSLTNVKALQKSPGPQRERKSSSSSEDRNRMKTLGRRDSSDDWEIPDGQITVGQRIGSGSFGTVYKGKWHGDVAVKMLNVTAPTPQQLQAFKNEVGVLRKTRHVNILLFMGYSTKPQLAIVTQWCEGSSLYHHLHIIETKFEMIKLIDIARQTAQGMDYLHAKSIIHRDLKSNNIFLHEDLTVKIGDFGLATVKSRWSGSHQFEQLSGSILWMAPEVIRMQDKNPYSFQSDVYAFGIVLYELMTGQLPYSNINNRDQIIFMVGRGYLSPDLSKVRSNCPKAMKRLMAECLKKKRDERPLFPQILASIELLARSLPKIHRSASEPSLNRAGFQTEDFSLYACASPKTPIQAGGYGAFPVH

[6] = target: CRAF (Homo sapiens, UniProt P04049)
Chain of CRAF (P04049 whole entry): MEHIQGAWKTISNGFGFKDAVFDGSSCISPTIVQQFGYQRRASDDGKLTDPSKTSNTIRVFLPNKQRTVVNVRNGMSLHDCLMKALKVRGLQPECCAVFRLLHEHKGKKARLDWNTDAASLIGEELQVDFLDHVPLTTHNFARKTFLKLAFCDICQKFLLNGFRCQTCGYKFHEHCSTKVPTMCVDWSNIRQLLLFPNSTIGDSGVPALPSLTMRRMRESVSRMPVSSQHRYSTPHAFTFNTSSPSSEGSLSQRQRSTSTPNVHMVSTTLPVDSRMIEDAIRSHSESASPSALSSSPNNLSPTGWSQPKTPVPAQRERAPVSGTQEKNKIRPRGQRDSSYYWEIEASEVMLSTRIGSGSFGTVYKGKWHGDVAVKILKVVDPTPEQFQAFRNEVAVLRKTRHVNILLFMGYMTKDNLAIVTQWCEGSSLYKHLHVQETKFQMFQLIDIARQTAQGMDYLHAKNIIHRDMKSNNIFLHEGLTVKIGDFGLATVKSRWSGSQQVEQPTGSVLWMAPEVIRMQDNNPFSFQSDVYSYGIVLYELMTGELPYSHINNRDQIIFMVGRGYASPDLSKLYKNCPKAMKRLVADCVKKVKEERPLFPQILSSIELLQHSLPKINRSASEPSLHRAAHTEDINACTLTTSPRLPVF

[7] = in vivo
[8] = tested on: panel of 456 human kinases

Cc1ccc2c(Nc3cccc(OC(F)(F)F)c3)nccc2c1Nc1ncccc1-c1ncnc2nc[nH]c12 [LUT014, 6-methyl-5-N-[3-(7H-purin-6-yl)pyridin-2-yl]-1-N-[3-(trifluoromethoxy)phenyl]isoquinoline-1,5-diamine]
IC50 [1]: 0.0117 µM

C#Cc1c(F)ccc2cc(O)cc(-c3ncc4c(N5CC6CCC(C5)N6)nc(OC[C@@]56CCCN5C[C@H](F)C6)nc4c3F)c12 [MRTX1133]
activity in cellular assays [2]: single digit nanomolar | in vivo efficacy in tumor models harboring KRAS G12D mutations [3]: marked in vivo efficacy

Cc1ccc(NC(=O)c2ccnc(C(F)(F)F)c2)cc1-c1cc(OCCO)nc(N2CCOCC2)c1 [Naporafenib]
effect on tumors in xenograft models [4]: tumor regression | concentrations inhibiting BRAF kinase activity [5]: picomolar | concentrations inhibiting CRAF kinase activity [6]: picomolar | oral bioavailability [7]: orally bioavailable | selectivity against a panel of 456 human kinases [8]: high degree of selectivity
